Measurements published in publication PMC9482650, “Quantitative fragmentomics allow affinity mapping of interactomes” (Nature Communications, 2022).
Ends that are not written are not given here. * marks the point of attachment. Biotin = O=C1N[C@H]2[C@H](CS[C@H]2CCCCC(=O)*)N1; ttds = NCCCOCCOCCOCCCNC(=O)CCC(=O)*

Columns and labels:
HaCat cell extract preys = experiment: PBM-AP-MS, PBM peptide baits; format: binding, human
Procedure: (§1) HEK293T and HeLa cells were authenticated and found 100% identity to ATCC cat. CRL-3216 and ATCC cat. CCL-2, respectively. Jurkat and HaCat cell lines were not authenticated (original source: ECACC and Deutsches Krebsforschungszentrum DKFZ, respectively). HeLa cells were grown in DMEM (1 g/L glucose, Gibco) medium completed with 5% FCS and 40 μg/mL gentamicin, diluted every 3rd/4th day 1/10. HaCat cells were grown in DMEM (1 g/L glucose, Gibco) medium completed with 10% FCS and 40 μg/mL gentamicin, diluted every 3rd/4th day 1/4. Jurkat cells were grown in RPMI (Gibco) medium completed with 10% FCS and 40 μg/mL gentamicin, diluted every 3rd/4th day 1/12. All cells were kept at 37 °C and 5% CO2. For proteomics analyses cells were seeded on T-175 flasks. After they reached confluency, adherent cells were washed with PBS once and collected by scraping with ice-cold lysis buffer (Hepes-KOH pH 7.5 50 mM, NaCl 150 mM, Triton X-100 1%, complete EDTA-free protease inhibitor cocktail 1×, EDTA 2 mM, TCEP 5 mM, glycerol 10%). Jurkat cells were collected by 1000 g × centrifugation, washed once with PBS, then collected by 1000 g × 5 min centrifugation again and lysed in ice-cold lysis buffer. Lysates were sonicated 4 × 20 s with 1 s long pulses on ice, then incubated rotating at 4 °C for 30 min. Lysates were centrifuged at 12,000 rpm 4 °C for 20 min and supernatant was kept for further analysis. Concentration determination was carried out by standard Bradford method (Bio-Rad Protein Assay Dye Reagent #5000006) using BSA (MP BIomedicals #160069) as control on a Bio-Rad SmartSpec 3000 spectrophotometer instrument.
(§2) For PBM-AP-MS experiments, 30 μl streptavidin resin was mixed with biotin or peptide at 50–60 μM concentration in 6–6.5 resin volume for 60 min to achieve resin saturation. For PDZ-AP-MS experiments, 30 μl streptavidin resin was mixed with biotinylated MBP or MBP-PDZ at 40-50 μM concentration in >1000× resin volume for 60 min to achieve resin saturation. After saturation, resins were washed a single time (ten resin volume, holdup buffer), and were depleted with biotin (1 mM biotin, 5–10 resin volume, 10 min). Finally, resins were washed two times. 0.5 ml 2 mg/ml cell lysate was added to the dry resin (1 mg total input) and were incubated at 4 °C for 2 h. Then, the beads were washed three times with 10 resin volume buffer containing: 50 mM TRIS pH 8.5, 150 mM NaCl, 1% TritonX-100, 10× complete EDTA-free protease inhibitor cocktail, 2 mM EDTA, 1 mM TCEP. Then, the beads were washed two times with ten resin volume buffer containing: 50 mM TRIS pH 8.5, 150 mM NaCl, 1 mM TCEP. Finally, captured protein was eluted from the resin in two steps and the eluted fractions were pooled. For each elution the beads were incubated for 30 min with three resin volume buffer containing: 20 mM TRIS pH8.5, 100 mM NaCl, 500 μM TCEP, 8 M Urea. Between each step, the beads were separated by mild centrifugation and the supernatant was removed by gentle pipetting.
(§3) The samples were precipitated with TCA 20% overnight at 4 °C and centrifuged at 14,000 rpm for 10 min at 4 °C. The protein pellets were washed twice with 1 mL cold acetone and air dried. The protein extracts were solubilized in urea 8 M, reduced with 5 mM TCEP for 30 min, and alkylated with 10 mM iodoacetamide for 30 min in the dark. Double digestion was performed at 37 °C with 500 ng endoproteinase Lys-C for 4 h, followed by fourfold dilution and an overnight digestion with 500 ng trypsin. Peptide mixtures were then desalted on C18 spin-column and dried on Speed-Vacuum.
(§4) Samples were analyzed using an Ultimate 3000 nano-RSLC (Thermo Scientific, San Jose California) coupled in line with a LTQ-Orbitrap ELITE mass spectrometer via a nano-electrospray ionization source (Thermo Scientific, San Jose California). […]

HeLa cell extract preys = experiment: PBM-AP-MS, PBM peptide baits; format: binding, human
Procedure: as §1, §2, §3, §4

## HPV35E6 ({Biotin-ttds}-SKPTRRETEV)
HaCat cell extract preys; prey AHNAK2, PBM peptide bait
  Enrichment values compared to biotin controls: 0.845
HaCat cell extract preys; prey AHNAK, PBM peptide bait
  Enrichment values compared to biotin controls: 0.7
HaCat cell extract preys; prey DLG1, PBM peptide bait
  Enrichment values compared to biotin controls: 5.3
HaCat cell extract preys; prey GORASP2, PBM peptide bait
  Enrichment values compared to biotin controls: 0.7
HaCat cell extract preys; prey InaDl, PBM peptide bait
  Enrichment values compared to biotin controls: 0.6
HaCat cell extract preys; prey LAP2, PBM peptide bait
  Enrichment values compared to biotin controls: 0.849
HaCat cell extract preys; prey LIN7C, PBM peptide bait
  Enrichment values compared to biotin controls: 269.9
HaCat cell extract preys; prey MAGI3, PBM peptide bait
  Enrichment values compared to biotin controls: 4.3
HaCat cell extract preys; prey MPP5, PBM peptide bait
  Enrichment values compared to biotin controls: 0.7
HaCat cell extract preys; prey MPP6, PBM peptide bait
  Enrichment values compared to biotin controls: 0.8
HaCat cell extract preys; prey MPP7, PBM peptide bait
  Enrichment values compared to biotin controls: 30.8
HaCat cell extract preys; prey NHERF2, PBM peptide bait
  Enrichment values compared to biotin controls: 0.665
HaCat cell extract preys; prey NHERF, PBM peptide bait
  Enrichment values compared to biotin controls: 0.215
HaCat cell extract preys; prey PDLIM1, PBM peptide bait
  Enrichment values compared to biotin controls: 0.569
HaCat cell extract preys; prey PDLIM2, PBM peptide bait
  Enrichment values compared to biotin controls: 1.6
HaCat cell extract preys; prey PDLIM4, PBM peptide bait
  Enrichment values compared to biotin controls: 1.0
HaCat cell extract preys; prey PDLIM5, PBM peptide bait
  Enrichment values compared to biotin controls: 1.1
HaCat cell extract preys; prey PDLIM7, PBM peptide bait
  Enrichment values compared to biotin controls: 0.422
HaCat cell extract preys; prey PTPN3, PBM peptide bait
  Enrichment values compared to biotin controls: 0.9
HaCat cell extract preys; prey SCRIB, PBM peptide bait
  Enrichment values compared to biotin controls: 3.1
HaCat cell extract preys; prey SNTB2, PBM peptide bait
  Enrichment values compared to biotin controls: 7.5
HaCat cell extract preys; prey SNX27, PBM peptide bait
  Enrichment values compared to biotin controls: 3.3
HaCat cell extract preys; prey SYNJ2BP, PBM peptide bait
  Enrichment values compared to biotin controls: 25.2
  Fold changes HaCat, SYNJ2BP: 25.2
HaCat cell extract preys; prey TJP1, PBM peptide bait
  Enrichment values compared to biotin controls: 1.3
HaCat cell extract preys; prey TJP2, PBM peptide bait
  Enrichment values compared to biotin controls: 1.8
HaCat cell extract preys; prey TX1B3, PBM peptide bait
  Enrichment values compared to biotin controls: 3.3
HeLa cell extract preys; prey AHNAK, PBM peptide bait
  Enrichment values compared to biotin controls: 0.9
HeLa cell extract preys; prey ARHGAP21, PBM peptide bait
  Enrichment values compared to biotin controls: 1.3
HeLa cell extract preys; prey ARHGEF12, PBM peptide bait
  Enrichment values compared to biotin controls: 1.1
HeLa cell extract preys; prey CASK, PBM peptide bait
  Enrichment values compared to biotin controls: 4.9
HeLa cell extract preys; prey DLG1, PBM peptide bait
  Enrichment values compared to biotin controls: 6.4
HeLa cell extract preys; prey DLG3, PBM peptide bait
  Enrichment values compared to biotin controls: 5.8
HeLa cell extract preys; prey DLG5, PBM peptide bait
  Enrichment values compared to biotin controls: 1.3
HeLa cell extract preys; prey DVL2, PBM peptide bait
  Enrichment values compared to biotin controls: 0.8
HeLa cell extract preys; prey GOPC, PBM peptide bait
  Enrichment values compared to biotin controls: 1.4
HeLa cell extract preys; prey HTRA1, PBM peptide bait
  Enrichment values compared to biotin controls: 2.0
HeLa cell extract preys; prey InaDl, PBM peptide bait
  Enrichment values compared to biotin controls: 1.3
HeLa cell extract preys; prey LAP2, PBM peptide bait
  Enrichment values compared to biotin controls: 1.4
HeLa cell extract preys; prey LIN7C, PBM peptide bait
  Enrichment values compared to biotin controls: 131.1
HeLa cell extract preys; prey LMO7, PBM peptide bait
  Enrichment values compared to biotin controls: 2.0
HeLa cell extract preys; prey MPDZ, PBM peptide bait
  Enrichment values compared to biotin controls: 2.5
HeLa cell extract preys; prey MPP5, PBM peptide bait
  Enrichment values compared to biotin controls: 4.0
HeLa cell extract preys; prey MPP6, PBM peptide bait
  Enrichment values compared to biotin controls: 1.1
HeLa cell extract preys; prey MPP7, PBM peptide bait
  Enrichment values compared to biotin controls: 11.7
HeLa cell extract preys; prey NHERF2, PBM peptide bait
  Enrichment values compared to biotin controls: 0.9
HeLa cell extract preys; prey NHERF3, PBM peptide bait
  Enrichment values compared to biotin controls: 0.9
HeLa cell extract preys; prey PDLIM5, PBM peptide bait
  Enrichment values compared to biotin controls: 0.8
HeLa cell extract preys; prey PDLIM7, PBM peptide bait
  Enrichment values compared to biotin controls: 0.9
HeLa cell extract preys; prey PSMD9, PBM peptide bait
  Enrichment values compared to biotin controls: 0.6
HeLa cell extract preys; prey SCRIB, PBM peptide bait
  Enrichment values compared to biotin controls: 217.5
HeLa cell extract preys; prey SIPA1L1, PBM peptide bait
  Enrichment values compared to biotin controls: 0.5
HeLa cell extract preys; prey SNTA1, PBM peptide bait
  Enrichment values compared to biotin controls: 0.5
HeLa cell extract preys; prey SNTB1, PBM peptide bait
  Enrichment values compared to biotin controls: 8.8
HeLa cell extract preys; prey SNTB2, PBM peptide bait
  Enrichment values compared to biotin controls: 48.7
HeLa cell extract preys; prey SNX27, PBM peptide bait
  Enrichment values compared to biotin controls: 1.4
HeLa cell extract preys; prey SYNJ2BP, PBM peptide bait
  Enrichment values compared to biotin controls: 63.6
  Fold changes HeLa, SYNJ2BP: 63.6
HeLa cell extract preys; prey TJP1, PBM peptide bait
  Enrichment values compared to biotin controls: 0.9
HeLa cell extract preys; prey TX1B3, PBM peptide bait
  Enrichment values compared to biotin controls: 15.3
